Columns and labels:
[1] = biological target: T1, Glutamate [NMDA] receptor (Homo sapiens) (UniProt Q05586+Q12879+Q13224+O15399+O60391+Q14957+Q8TCU5); test: Inhibition of agonist site of NMDA receptor at 1 nM; format: functional
[2] = biological target: Muscarinic acetylcholine receptor (Homo sapiens) (UniProt P20309+P08173+P11229+P08172+P08912); test: Inhibition of non selective binding to muscarinic receptor at 100 nM; format: protein assay
[3] = Inhibition of P2Y purinergic receptor at 1 nM
[4] = biological target: T1, Glutamate [NMDA] receptor (Homo sapiens); test: Inhibition of MK-801 site of glutamate receptor at 10 uM; format: protein-complex assay
[5] = biological target: T2, 5-hydroxytryptamine receptor 1A (Homo sapiens) (UniProt P08908); test: Inhibition of forskolin activated adenylate cyclase at 1 nM; format: functional
T2 sequence (whole entry): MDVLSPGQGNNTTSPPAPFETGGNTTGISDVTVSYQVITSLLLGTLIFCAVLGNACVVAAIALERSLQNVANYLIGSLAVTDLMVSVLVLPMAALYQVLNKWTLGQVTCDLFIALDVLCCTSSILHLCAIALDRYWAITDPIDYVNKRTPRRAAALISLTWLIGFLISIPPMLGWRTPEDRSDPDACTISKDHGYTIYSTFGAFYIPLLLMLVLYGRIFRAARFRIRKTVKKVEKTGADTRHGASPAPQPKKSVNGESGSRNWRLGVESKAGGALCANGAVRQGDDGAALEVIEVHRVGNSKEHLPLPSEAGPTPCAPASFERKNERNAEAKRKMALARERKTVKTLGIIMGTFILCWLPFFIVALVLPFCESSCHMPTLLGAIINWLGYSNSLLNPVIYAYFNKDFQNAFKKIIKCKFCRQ

[6] = biological target: Protein kinase C, PKC; classical/novel (Homo sapiens) (UniProt O94806+P17252+P05129+Q05655+P05771+Q02156+P24723+Q15139+Q04759); test: Inhibition of PDBu activated protein kinase C at 1 nM; format: protein assay
[7] = biological target: T3, Cysteinyl leukotriene receptor 1 (Homo sapiens) (UniProt Q9Y271); test: Inhibition of leukotriene D4 at 100 nM
T3 sequence (whole entry): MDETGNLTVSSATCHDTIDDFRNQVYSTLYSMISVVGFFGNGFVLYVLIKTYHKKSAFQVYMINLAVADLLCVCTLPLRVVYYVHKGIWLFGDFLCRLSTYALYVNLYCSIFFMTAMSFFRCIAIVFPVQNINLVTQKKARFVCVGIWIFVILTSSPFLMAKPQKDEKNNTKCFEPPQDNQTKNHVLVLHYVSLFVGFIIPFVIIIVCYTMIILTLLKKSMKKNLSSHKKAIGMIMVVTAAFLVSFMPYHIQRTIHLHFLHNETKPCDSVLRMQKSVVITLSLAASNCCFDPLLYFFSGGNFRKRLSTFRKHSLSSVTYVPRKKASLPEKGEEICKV

[8] = biological target: Platelet-activating factor receptor (Homo sapiens) (UniProt P25105); test: Inhibition of PAF at 100 nM
Sequence of Platelet-activating factor receptor (Homo sapiens) (P25105 whole entry): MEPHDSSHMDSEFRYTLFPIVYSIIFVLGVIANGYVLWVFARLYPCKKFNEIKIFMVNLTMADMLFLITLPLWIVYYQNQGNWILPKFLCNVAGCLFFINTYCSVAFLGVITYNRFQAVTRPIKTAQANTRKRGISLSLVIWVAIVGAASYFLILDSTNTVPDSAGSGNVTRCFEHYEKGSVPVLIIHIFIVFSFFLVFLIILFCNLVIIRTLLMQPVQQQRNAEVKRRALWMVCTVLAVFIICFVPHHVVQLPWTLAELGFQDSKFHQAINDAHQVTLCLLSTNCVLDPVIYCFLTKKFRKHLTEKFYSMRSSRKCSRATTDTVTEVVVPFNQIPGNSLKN

[9] = biological target: T4, Type-1 angiotensin II receptor (Homo sapiens) (UniProt P30556); test: Inhibition of type 1 angiotensin 2 receptor at 1 nM
T4 sequence (whole entry): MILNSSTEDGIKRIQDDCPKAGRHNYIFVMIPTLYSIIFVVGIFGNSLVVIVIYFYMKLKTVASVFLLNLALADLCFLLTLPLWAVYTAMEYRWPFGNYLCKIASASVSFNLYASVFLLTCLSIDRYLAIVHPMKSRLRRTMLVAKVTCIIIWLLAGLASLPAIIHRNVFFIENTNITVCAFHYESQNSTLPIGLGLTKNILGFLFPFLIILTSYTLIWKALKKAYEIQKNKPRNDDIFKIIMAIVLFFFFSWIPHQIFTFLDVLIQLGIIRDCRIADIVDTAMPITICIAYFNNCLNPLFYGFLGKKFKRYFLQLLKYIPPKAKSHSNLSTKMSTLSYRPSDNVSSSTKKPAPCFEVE

[10] = biological target: 5-hydroxytryptamine receptor 4 (Homo sapiens, UniProt Q13639); test: Inhibitory activity against 5HT4 receptor
Sequence of 5-hydroxytryptamine receptor 4 (Q13639 whole entry): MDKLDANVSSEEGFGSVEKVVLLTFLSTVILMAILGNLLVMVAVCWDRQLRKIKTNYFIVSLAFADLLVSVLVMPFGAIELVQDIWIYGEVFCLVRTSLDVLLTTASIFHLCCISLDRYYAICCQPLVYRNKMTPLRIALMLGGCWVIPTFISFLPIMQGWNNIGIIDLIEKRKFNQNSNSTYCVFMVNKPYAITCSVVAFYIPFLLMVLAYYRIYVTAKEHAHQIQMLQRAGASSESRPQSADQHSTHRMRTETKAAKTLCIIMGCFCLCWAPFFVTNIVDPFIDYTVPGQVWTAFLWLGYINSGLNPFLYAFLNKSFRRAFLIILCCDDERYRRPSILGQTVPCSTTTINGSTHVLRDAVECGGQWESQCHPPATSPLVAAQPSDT

[11] = biological target: T5, Alpha-2C adrenergic receptor (Homo sapiens, UniProt P18825); test: Displacement of [3H]clonidine from cloned human adrenergic Alpha-2C receptor expressed in Sf9 cells
T5 sequence (P18825 whole entry): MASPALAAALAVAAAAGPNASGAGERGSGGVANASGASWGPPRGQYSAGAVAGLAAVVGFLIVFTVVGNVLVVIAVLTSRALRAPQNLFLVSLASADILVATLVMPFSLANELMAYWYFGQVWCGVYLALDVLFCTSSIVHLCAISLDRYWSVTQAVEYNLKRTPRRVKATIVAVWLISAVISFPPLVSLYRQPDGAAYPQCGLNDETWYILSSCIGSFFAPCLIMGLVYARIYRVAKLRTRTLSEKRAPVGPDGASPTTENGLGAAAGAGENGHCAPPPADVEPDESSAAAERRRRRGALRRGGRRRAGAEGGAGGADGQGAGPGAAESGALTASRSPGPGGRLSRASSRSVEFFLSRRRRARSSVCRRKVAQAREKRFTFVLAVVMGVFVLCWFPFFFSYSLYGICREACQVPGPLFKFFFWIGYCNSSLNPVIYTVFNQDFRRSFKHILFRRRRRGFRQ

SMILES: C[C@H](N)Cn1ncc2ccc(O)cc21
- inhibition [1]: 14.9%
- inhibition [2]: 0.28%
- inhibition [3]: -2.2%
- inhibition [4]: 15.1%
- inhibition [5]: 2.48%
- inhibition [6]: 12.6%
- inhibition [7]: 7.43%
- inhibition [8]: 24.8%
- inhibition [9]: 5.26%
- Ki [10]: 515 nM
- Ki [11]: 4700 nM
